The values below come from patent US11572359B2, “PARP/PI3K double-target inhibit containing pyridopyrimidine structure” (CHINA PHARMACEUTICAL UNIVERSITY, priority 2017, dated 2023).

The structures appear in SMILES notation. Read-outs that look alike come from different tables or passages of the source.

Data set [1] has as its target PI3Kα (Homo sapiens, UniProt P42336). Put plainly: PI3Kα inhibitory activity at the enzyme level (ADP detection by luciferase method). In kind it is biochemical. As to conditions: for inhibition at 0.1 µM: 100 nM compound, read-out: Inhibition rate on PI3Kα (100 nM). The procedure: Experimental method for PI3Kα inhibitory activity: simultaneously adding 40 mM Tris, pH 7.4, 10 mM MgCl2, 0.1 mg/ml BSA, 1 mM DTT, 10 μM ATP, PI3Kα kinase and a kinase substrate into different concentrations of compounds to be sieved to form a 50 μL reaction system, after reaction at 30° C. for 40 minutes, detecting an ADP content in the system through a luciferase method, and then after reaction for 5 minutes, detecting a chemiluminescence signal on an MD-SpectraMax M5 multi-function microplate reader, wherein the intensity of a value of the chemiluminescence signal is in direct proportion to […]. The detected value of the chemiluminescence signal is substituted into the following formula: Enzyme activity percentage (%)=(OD value administration hole-OD value background)/(OD value control hole−OD value background)×100%
(§1) Method for determining IC50 of PARP-1 and PI3Kα: diluting a drug concentration according to a three-fold concentration gradient, and detecting two duplicate wells at each concentration; taking the drug concentration as the abscissa and the percentage of enzyme activity corresponding to each concentration as the ordinate, and calculating to obtain inhibition IC50 values of all tested compounds by using Graphpad Prism5 for nonlinear regression.

Data set [2] has as its target PARP-1 (Homo sapiens, UniProt P09874). In words: PARP-1 inhibitory activity at the enzyme level (histone-coated plate, chemiluminescence). In kind it is biochemical. The note with it: for inhibition at 0.01 µM: 10 nM compound, read-out: Inhibition rate on PARP-1 (10 nM). The protocol: Experimental method for PARP-1 inhibitory activity: taking out a 96-well plate pre-coated with histones, and adding a following enzyme reaction system and inhibitors of different concentrations into each well, including: 50 μL of a reaction buffer solution (Tris*HCl, pH 8.0), NAD^+, biotin-labeled activated DNA, PARP-1 enzyme, and an inhibitor; after reaction at a room temperature for 1 hour, adding 50 uL of avidin-labeled HRP into each well for reaction for 30 minutes; and then adding 100 μL of an HRP substrate, and detecting a chemiluminescence value on a SpectraMax M instrument. The percentage of enzyme activity is calculated by the following formula: Enzyme activity percentage (%)=(OD value administration hole-OD value background)/(OD value control hole−OD value background)×100%
as §1

In data set [3] the test system is Human Breast Cancer MDA-MB-468 Cell Nude Mice Xenograft. Put plainly: Growth of human breast cancer MDA-MB-468 cell nude mice xenograft. Type of data set: in vivo. As to conditions: abdominal cavity, once every 2 days; for Tumor weights: after 34 days, in g (unit assumed). The protocol:
Preparing an MDA-MB-468 cell line in a logarithmic growth phase into a 2×10^7/mL cell suspension under sterile conditions, and inoculating 0.1 mL of the cell suspension under the skin of the right axilla of each nude mouse. Measuring the diameter of a nude mice xenograft with a vernier caliper, and randomly dividing the animals into groups after the tumors grew to about 100 mm^3. Dynamically observing an anti-tumor effect of the tested animals using a method of measuring the tumor diameter, wherein the frequency of measurements of the tumor diameter is once every 2 days, and the administration volume is 0.4 mL/20 g. After 34 days, killing the mice and surgically removing and weighing tumor pieces. The formula for calculating tumor volume (TV) is: TV=½×a×b^2, wherein a and b represent the length and the width respectively.
Background: In xenograft studies the graft and the host belong to different species.

For data set [4], the system named is MDA-MB-468 (human breast cancer cells). Put plainly: Tumor cell proliferation inhibition (SRB, 72 hours), MDA-MB-468. In kind it is cell-based. The protocol:
Inoculating HCT116 (human colon cancer cells), HCC1937 (human breast cancer cells), MDA-MB-231 (human breast cancer cells) and MDA-MB-468 (human breast cancer cells) in a logarithmic growth phase with a certain quantity in a 96-well plate (200 μL/well) for culture for 24 hours so as to adhere to walls and then adding drugs. Arranging 3 duplicate wells for each drug concentration, and setting corresponding zero-cut holes and blank controls. After 72 hours of drug action, adding 50% TCA (50 μL/well) into adherent cells, fixing at 4° C. for 1 hour, pouring a fixing solution, washing for 5 times with distilled water, and naturally drying. Adding 100 μL of 4 mg/mL SRB into each well, staining at a room temperature for 15 minutes, discarding, washing for 5 times with 1% glacial acetic acid, and naturally drying. Finally, adding 150 μL of a 10 mM Tris solution into each well, shaking to be uniform, and measuring OD values at a wavelength of 565 nm using a wavelength-adjustable microplate reader (VERSAmax™, Molecular Device).

PARP-1, sequence (P09874 whole entry): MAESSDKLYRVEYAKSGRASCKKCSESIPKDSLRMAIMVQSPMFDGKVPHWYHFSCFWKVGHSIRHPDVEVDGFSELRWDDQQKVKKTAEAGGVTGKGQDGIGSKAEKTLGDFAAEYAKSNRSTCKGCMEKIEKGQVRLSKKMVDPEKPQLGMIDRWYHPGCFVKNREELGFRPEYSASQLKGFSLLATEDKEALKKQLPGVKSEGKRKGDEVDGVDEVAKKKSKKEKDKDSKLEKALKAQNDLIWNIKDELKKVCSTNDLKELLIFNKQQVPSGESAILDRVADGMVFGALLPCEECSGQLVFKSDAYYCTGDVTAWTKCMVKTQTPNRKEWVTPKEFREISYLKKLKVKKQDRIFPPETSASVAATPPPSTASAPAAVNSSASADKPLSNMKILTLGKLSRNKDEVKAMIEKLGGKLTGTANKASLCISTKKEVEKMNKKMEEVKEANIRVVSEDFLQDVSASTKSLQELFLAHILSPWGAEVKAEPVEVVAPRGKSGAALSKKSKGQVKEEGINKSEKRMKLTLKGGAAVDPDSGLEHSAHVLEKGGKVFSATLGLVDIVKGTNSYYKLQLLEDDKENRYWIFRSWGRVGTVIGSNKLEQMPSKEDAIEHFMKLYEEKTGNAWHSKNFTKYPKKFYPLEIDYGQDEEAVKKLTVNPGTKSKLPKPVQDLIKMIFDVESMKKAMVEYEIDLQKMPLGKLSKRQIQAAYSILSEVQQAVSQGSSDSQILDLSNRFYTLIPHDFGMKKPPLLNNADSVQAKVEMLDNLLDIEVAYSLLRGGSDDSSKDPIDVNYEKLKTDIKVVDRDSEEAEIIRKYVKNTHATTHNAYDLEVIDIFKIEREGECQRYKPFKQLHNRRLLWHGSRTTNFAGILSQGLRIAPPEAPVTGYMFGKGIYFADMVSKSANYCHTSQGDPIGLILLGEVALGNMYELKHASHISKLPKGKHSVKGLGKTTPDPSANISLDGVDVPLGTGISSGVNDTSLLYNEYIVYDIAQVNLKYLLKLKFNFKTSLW
PI3Kα, sequence (P42336 whole entry): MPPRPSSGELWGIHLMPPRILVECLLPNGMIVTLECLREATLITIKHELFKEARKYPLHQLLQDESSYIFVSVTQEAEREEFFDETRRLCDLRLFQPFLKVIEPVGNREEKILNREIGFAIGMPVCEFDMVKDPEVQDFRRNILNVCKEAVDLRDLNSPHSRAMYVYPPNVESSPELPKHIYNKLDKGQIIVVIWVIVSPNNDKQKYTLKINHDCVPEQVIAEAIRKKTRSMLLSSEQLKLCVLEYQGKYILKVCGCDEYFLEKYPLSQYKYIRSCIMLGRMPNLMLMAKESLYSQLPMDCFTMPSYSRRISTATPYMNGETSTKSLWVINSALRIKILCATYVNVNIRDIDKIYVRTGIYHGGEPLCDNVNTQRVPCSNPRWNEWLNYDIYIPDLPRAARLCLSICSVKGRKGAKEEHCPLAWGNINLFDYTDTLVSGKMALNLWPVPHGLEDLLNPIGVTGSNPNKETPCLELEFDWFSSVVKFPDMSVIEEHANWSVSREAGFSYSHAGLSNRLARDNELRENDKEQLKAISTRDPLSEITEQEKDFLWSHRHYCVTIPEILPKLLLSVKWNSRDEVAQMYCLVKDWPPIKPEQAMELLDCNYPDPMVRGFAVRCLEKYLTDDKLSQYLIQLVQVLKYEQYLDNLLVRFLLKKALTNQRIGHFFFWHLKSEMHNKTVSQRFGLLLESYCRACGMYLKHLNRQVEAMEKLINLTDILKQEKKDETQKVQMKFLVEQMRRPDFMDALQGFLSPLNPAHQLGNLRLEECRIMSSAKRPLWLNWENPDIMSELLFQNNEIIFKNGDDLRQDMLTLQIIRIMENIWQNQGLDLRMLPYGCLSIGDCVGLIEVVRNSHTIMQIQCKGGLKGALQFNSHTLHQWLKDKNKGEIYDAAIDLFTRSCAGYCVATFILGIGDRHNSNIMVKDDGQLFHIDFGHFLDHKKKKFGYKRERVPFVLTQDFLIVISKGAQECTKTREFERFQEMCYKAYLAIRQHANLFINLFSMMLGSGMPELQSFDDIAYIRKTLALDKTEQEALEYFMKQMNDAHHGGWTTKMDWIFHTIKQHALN
PI3Kα, sequence (P27986 whole entry partner): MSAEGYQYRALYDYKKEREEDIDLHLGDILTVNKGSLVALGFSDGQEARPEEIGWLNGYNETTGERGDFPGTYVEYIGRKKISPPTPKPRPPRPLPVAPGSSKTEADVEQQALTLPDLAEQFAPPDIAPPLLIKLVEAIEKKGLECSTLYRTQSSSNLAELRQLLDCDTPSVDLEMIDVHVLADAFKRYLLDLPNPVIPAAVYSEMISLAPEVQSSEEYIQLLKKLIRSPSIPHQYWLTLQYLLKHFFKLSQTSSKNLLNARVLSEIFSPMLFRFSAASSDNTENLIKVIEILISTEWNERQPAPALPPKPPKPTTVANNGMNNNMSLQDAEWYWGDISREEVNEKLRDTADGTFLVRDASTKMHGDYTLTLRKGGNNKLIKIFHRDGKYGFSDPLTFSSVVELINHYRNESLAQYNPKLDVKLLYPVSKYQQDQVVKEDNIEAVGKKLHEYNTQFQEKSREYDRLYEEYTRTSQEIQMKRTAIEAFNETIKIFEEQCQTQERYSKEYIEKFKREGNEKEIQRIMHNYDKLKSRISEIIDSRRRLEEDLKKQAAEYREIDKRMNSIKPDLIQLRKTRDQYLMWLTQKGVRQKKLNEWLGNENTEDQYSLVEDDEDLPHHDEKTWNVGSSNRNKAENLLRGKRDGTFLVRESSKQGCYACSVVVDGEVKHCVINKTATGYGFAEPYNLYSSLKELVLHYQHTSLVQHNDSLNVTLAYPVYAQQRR

What is called melting point is the temperature of the solid-liquid transition. As usually defined, the inhibition is the relative decrease from the control value, in per cent. As to `Nc1ncc(-c2nc3c(c(N4CCOCC4)n2)CCN(C(=O)c2cc(Cc4n[nH]c(=O)c5ccccc45)ccc2F)C3)cc1C(F)(F)F` [I-5, 4-(3-(2-(6-amino-5-(trifluoromethyl)pyridin-3-yl)-4-morpholinyl-5,6,7,8-tetrahydropyrido [3,4-d]pyrimidin-7-formyl)-4-fluorobenzyl)phthalazin-1(2H)-one], the melting point was 256 to 258 °C. Moreover, the inhibition at 0.1 µM in data set [1] was determined as 17%. Besides, the inhibition at 0.01 µM in data set [2] was 81%.

Turning to `O=C(CN1CCOCC1)Nc1cc(C(F)(F)F)c(-c2nc3c(c(N4CCOCC4)n2)CCN(C(=O)c2cc(Cc4n[nH]c(=O)c5ccccc45)ccc2F)C3)cn1` [I-4, N-(5-(7-(2-fluoro-5-((4-oxo-3,4-dihydrophthalazin-1-yl)methyl)benzoyl)-4-morpholinyl-5,6,7,8-tetrahydropyrido[3,4-cl]pyrimidin-2-yl)-4-(trifluoromethyl)pyridin-2-yl)-2-morpholinyl acetamide], the inhibition at 0.1 µM in data set [1] amounted to 53%. In addition, in data set [2], the inhibition at 0.01 µM was found to be 67%.

For the molecule `Nc1ccc(-c2nc3c(c(N4CCOCC4)n2)CCN(C(=O)c2cc(Cc4n[nH]c(=O)c5ccccc45)ccc2F)C3)c(F)c1` [I-6, 4-(3-(2-(4-amino-2-fluorophenyl)-4-morpholinyl-5,6,7,8-tetrahydropyrido[3,4-d]pyrimidin-7-formyl)-4-fluorobenzyl)phthalazin-1(2H)-one], the melting point was in the range of 204 to 206 °C. In addition, the inhibition at 0.1 µM in data set [1] came to 24%. Besides, the inhibition at 0.01 µM in data set [2] amounted to 89%.

As for `O=C(c1cc(Cc2n[nH]c(=O)c3ccccc23)ccc1F)N1CCc2c(nc(-c3cccc4[nH]ccc34)nc2N2CCOCC2)C1` [I-10, 4-(3-(2-(1H-indole-4-yl)-4-morpholinyl-5,6,7,8-tetrahydropyrido[3,4-d]pyrimidin-7-formyl)-4-fluorobenzyl)phthalazin-1(2H)-one], the inhibition at 0.1 µM in data set [1] is 15%. In data set [2], the inhibition at 0.01 µM came out at 88%.

For the molecule `Nc1cc(C(F)(F)F)c(-c2cc(N3CCOCC3)nc(N3CCOCC3)n2)cn1` [BKM120, reference compound], the “Tumor Volumes” value in data set [3] (0 day, 27.5 mg/kg) stood at 94.67 mm^3; in data set [3] (6 days, 27.5 mg/kg), 203.83 mm^3; in data set [3] (12 days, 27.5 mg/kg), 294.34 mm^3; in data set [3] (18 days, 27.5 mg/kg) it was 388.09 mm^3; in data set [3] (24 days, 27.5 mg/kg), 525.13 mm^3; in data set [3] (30 days, 27.5 mg/kg), 677.51 mm^3. In data set [3] (34 days, 27.5 mg/kg), the “Tumor Volumes” value is 777.59 mm^3. The molecule also came in with a Tumor weights in data set [3] (27.5 mg/kg) of 1.36.

Turning to `O=C(c1cc(Cc2n[nH]c(=O)c3ccccc23)ccc1F)N1CCN(C(=O)C2CC2)CC1` [Olaparib, reference compound], the “Tumor Volumes” value in data set [3] (0 day, 50 mg/kg (I-1: medium)) came to 96.41 mm^3; in data set [3] (6 days, 50 mg/kg (I-1: medium)), 222.00 mm^3; in data set [3] (12 days, 50 mg/kg (I-1: medium)), 324.20 mm^3; in data set [3] (18 days, 50 mg/kg (I-1: medium)), 422.84 mm^3; in data set [3] (24 days, 50 mg/kg (I-1: medium)), 566.86 mm^3; in data set [3] (30 days, 50 mg/kg (I-1: medium)) it was 718.76 mm^3. The “Tumor Volumes” value in data set [3] (34 days, 50 mg/kg (I-1: medium)) was 834.87 mm^3. The molecule also had a Tumor weights in data set [3] (50 mg/kg (I-1: medium)) of 1.55.

With `O=C(c1cc(Cc2n[nH]c(=O)c3ccccc23)ccc1F)N1CCc2c(nc(-c3ccc4[nH]ccc4c3)nc2N2CCOCC2)C1` [I-9, 4-(3-(2-(1H-indole-5-yl)-4-morpholinyl-5,6,7,8-tetrahydropyrido[3,4-d]pyrimidin-7-formyl)-4-fluorobenzyl)phthalazin-1(2H)-one], the melting point lay within 238 to 240 °C. The inhibition at 0.1 µM in data set [1] was 30%. For the same molecule, the inhibition at 0.01 µM in data set [2] worked out at 85%.

Broadly, the IC50 is the concentration at which inhibition is half-maximal. The low end stands for higher potency, the high end for lower potency. As for `C[C@H]1COCCN1c1nc(-c2cnc(N)nc2)nc2c1CCN(C(=O)c1cc(Cc3n[nH]c(=O)c4ccccc34)ccc1F)C2` [I-11, (S)-4-(3-(2-(2-aminopyrimidin-5-yl)-4-(3-methylmorpholinyl)-5,6,7,8-tetrahydropyrido [3,4-d]pyrimidin-7-formyl)-4-fluorobenzyl)phthalazin-1(2H)-one], the melting point was in the range of 214 to 216 °C. Further, half-maximal inhibition in data set [4] (IC50) was put at 738 nM. The same molecule showed an IC50 in data set [4] (Homo sapiens, MDA-MB-468, 72 h) of less than 1000 nM. In addition, in data set [1], the IC50 was 29.8 nM and the inhibition at 0.1 µM was 67%. Further, in data set [2], the IC50 amounted to 0.376 nM and the inhibition at 0.01 µM was determined as 94%.

As for `Nc1cc(-c2nc3c(c(N4CCOCC4)n2)CCN(C(=O)c2cc(Cc4n[nH]c(=O)c5ccccc45)ccc2F)C3)ccc1F` [I-7, 4-(3-(2-(3-amino-4-fluorophenyl)-4-morpholinyl-5,6,7,8-tetrahydropyrido[3,4-d]pyrimidin-7-formyl)-4-fluorobenzyl)phthalazin-1(2H)-one], the melting point lay within 236 to 239 °C. In addition, the inhibition at 0.1 µM in data set [1] came to 27%. The inhibition at 0.01 µM in data set [2] worked out at 83%.
